Data from US9862684B2, “Modulation of K2P channels” (The Regents of the University of California, priority 2013, dated 2018).

Target: T1, K2P2.1 (TREK-1) (Mus musculus, UniProt P97438)
T1 construct: expressed in transfected cells; host or cells: Xenopus oocytes (cRNA injection, pGEMHE/pMO)
T1 sequence (P97438 1-411 isoform P97438-2): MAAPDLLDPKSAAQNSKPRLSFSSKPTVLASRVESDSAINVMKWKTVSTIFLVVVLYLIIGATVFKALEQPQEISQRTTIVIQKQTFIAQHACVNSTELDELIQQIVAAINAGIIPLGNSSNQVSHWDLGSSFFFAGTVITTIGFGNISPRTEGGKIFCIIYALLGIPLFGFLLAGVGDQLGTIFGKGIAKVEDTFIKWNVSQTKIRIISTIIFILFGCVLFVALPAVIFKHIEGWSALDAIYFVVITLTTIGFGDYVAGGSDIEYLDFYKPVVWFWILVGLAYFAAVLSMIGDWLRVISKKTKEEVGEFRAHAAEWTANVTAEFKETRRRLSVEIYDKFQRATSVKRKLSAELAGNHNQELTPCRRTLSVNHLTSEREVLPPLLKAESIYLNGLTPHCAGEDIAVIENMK
Test: Excised membrane patches (outside-out, inside-out) from HEK-293T cells expressing K2P2.1 (TREK-1)
Assay type: cell-based, Murine
Protocol: FIG. 5 ML67-33 activates K2P2.1 (TREK-1) in excised membrane patches a, and b, exemplar I-V curves showing the effect of ML67-33 on K2P2.1 (TREK-1) in a, outside-out and b, inside-out excised patches from HEK-293T cells; currents were elicited by a voltage ramp from −100 to 50 mV from a holding potential of −40 mV. c, Exemplar channel responses to ML67-33 measured at 0 mV in the indicated configurations. Grey region indicates presence of 20 μM ML67-33. d, Times of half-maximal activation following ML67-33 application and recovery from activation (wash) following ML67-33 removal, measured in HEK-293T cells at 0 mV. Error bars: mean±s.e. n≧6, N≧2. ‘**’ indicates p≦0.01 and ‘N.S.’ indicates not significant (p≧0.05) as determined by t-test analysis.
Two-electrode voltage clamp recordings were performed from defolliculated stage V-VI Xenopus oocytes 24-48 hours after injection with 0.015-6.0 ng cRNA, using microelectrodes (0.3-3.0 MΩ) filled with 3M KCl. Data was acquired using the GeneClamp 500B (MDS Analytical Technologies) amplifier controlled by the pClamp software (Molecular Devices), and digitized at 1 kHz using Digidata 1332A (MDS Analytical Technologies). Recording solutions (mM): 2K (96 NaCl, 2 KCl, 1.8 CaCl2, 2 MgCl2), 90K (90 KCl, 8 NaCl, 1.8 CaCl2, 2 MgCl2), were buffered 5 mM HEPES pH 7.4. For K2P recordings, currents we elicited by a 1 second long ramp from −150 to +50 mV from a holding potential of −80 mV (2K), or −100 to +50 mV from a holding potential of 0 mV (90K). For KCNQ2 recordings, currents were elicited by a step protocol from −120 to 60 mV, in 20 mV increments, from a holding potential of −80 mV. Patch-clamp recordings from HEK-293T cells were performed using microelectrodes (2-3 MΩ) filled with 1M KCl. Data was acquired using the Axopatch 200B amplifier controlled by pClamp software, and digitized at 1 kHz using Digidata 1332A. Recording solutions (mM): intracellular (145 KCl, 5 EGTA, 3 MgCl2,) extracellular (150 NaCl, 5 KCl, 3 MgCl2, 1 CaCl2) were buffered with 5 mM HEPES pH 7.2 and 7.4, respectively. Currents were elicited by a 1 second long ramp from −150 to +50 mV from a holding potential of −80 mV. Data were fitted with a modified Hill's equation: I=Imin+(Imax−Imin)/(1+10^((Log EC50−Log [C])*H)), where Imax and Imin are maximal and minimal current values, respectively, EC50 is a half-maximal effective concentration of the compound, and H is the Hill coefficient.
To understand the mechanism of action of ML67-33, we examined how it affected K2P2.1 (TREK-1) expressed in two widely-used experimental systems, Xenopus oocytes and mammalian cells. […] Further, the effects of ML-67-33 were fast, occurring within seconds (half-maximal activation time, 4.1±0.5 s, mean±s.e., n=7, N=2) and were reversible upon washout (FIG. 4d). […] The times of half-maximal activation and return to baseline following compound washout (t1/2act and t1/2wash, respectively) in the outside-out configuration were indistinguishable from the same parameters measured in the whole-cell configuration (t1/2act:t1/2wash, mean±s.e. 4.1±0.5 s:3.9±0.5 s and 4.6±0.9 s:3.1±0.7 s for whole-cell and outside-out, respectively, FIGS. 5c and d). In stark contrast, both t1/2 values slowed substantially when the compound was applied to the inside-out configuration.

Q: Which t1/2act (inside-out patch) does the source give for CC1(C)c2cc(Cl)ccc2N(CCc2nnn[nH]2)c2ccc(Cl)cc21 [ML67-33, 2,7-dichloro-9,9-dimethyl-10-[2-(1H-tetrazol-5-yl)ethyl]acridine] here?
A: The t1/2act was 10.8 ± 1.3 s.

Q: And the t1/2wash (inside-out patch)?
A: Its t1/2wash is 22.0 ± 5.1 s.

Q: And the “effect on K2P2.1 (TREK-1) in excised patches (in words)” value (outside-out and inside-out configurations)?
A: Its value is “activated”.

Q: What about the t1/2act (outside-out patch) of the same molecule?
A: Its t1/2act is 4.6 ± 0.9 s.

Q: And the t1/2wash (outside-out patch)?
A: The t1/2wash was 3.1 ± 0.7 s.
